Source: ChEMBL document CHEMBL1136094, “Novel, potent and selective cyclin D1/CDK4 inhibitors: indolo[6,7-a]pyrrolo[3,4-c]carbazoles” (Bioorg Med Chem Lett, 2003)
pIC50: −log10 of the molar value.

Columns and labels:
[1] = molecular target: Cyclin-dependent kinase 2/cyclin E (Homo sapiens, UniProt P24941); assay: Inhibitory activity against Cyclin E-cyclin-dependent kinase 2 in enzymatic assay by measuring phosphorylation of RbING; assay type: protein-complex assay
[2] = molecular target: T1, Cyclin-dependent kinase 4/cyclin D1 (Homo sapiens, UniProt P11802); assay: Inhibitory activity against Cyclin D1-cyclin-dependent kinase 4 in enzymatic assay by measuring phosphorylation of Rb21; assay type: protein-complex assay
[3] = molecular target: T1, Cyclin-dependent kinase 4/cyclin D1; assay: Inhibitory activity against Cyclin D1-cyclin-dependent kinase 4 in enzymatic assay by measuring phosphorylation of RbING; assay type: protein-complex assay
[4] = tested on: HCT-116; assay: In vitro antiproliferative activity against human carcinoma cell line HCT116 (colon); assay type: functional, cell-based
[5] = tested on: NCI-H460; assay: In vitro antiproliferative activity against human carcinoma cell line H460 (lung); assay type: functional, cell-based
[6] = molecular target: cAMP-dependent protein kinase (PKA) (Homo sapiens, UniProt P22694+P17612+P22612); assay: Inhibitory activity against Protein kinase A (Histone); assay type: protein assay

T1 sequence (P11802 whole entry): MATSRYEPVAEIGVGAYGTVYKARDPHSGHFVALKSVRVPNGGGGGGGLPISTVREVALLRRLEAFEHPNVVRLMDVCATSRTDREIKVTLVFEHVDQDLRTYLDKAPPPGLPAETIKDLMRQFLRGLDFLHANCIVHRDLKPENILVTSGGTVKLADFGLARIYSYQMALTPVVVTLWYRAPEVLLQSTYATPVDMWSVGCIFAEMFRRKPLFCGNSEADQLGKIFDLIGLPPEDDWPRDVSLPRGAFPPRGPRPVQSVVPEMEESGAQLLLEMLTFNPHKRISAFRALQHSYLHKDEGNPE
T1 sequence (P24385 whole entry, further chain): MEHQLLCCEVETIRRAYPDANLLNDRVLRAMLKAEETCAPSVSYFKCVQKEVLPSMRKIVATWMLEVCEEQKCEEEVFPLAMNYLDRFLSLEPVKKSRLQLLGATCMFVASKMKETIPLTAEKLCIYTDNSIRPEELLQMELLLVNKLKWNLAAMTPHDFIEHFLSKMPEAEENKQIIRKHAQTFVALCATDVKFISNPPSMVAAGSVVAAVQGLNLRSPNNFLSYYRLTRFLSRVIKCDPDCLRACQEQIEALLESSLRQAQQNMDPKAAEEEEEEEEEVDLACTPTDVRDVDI

Row | SMILES | pIC50 [1] | pIC50 [2] | pIC50 [3] | pIC50 [4] | pIC50 [5] | IC50 [6] [nM]
1 | CCn1ccc2ccc3c(c4c(c5c6ccccc6n(CCCO)c35)C(=O)NC4=O)c21 | 6.40 | 7.05 | 6.87 | 5.92 | 5.75 | 5310
2 | Cn1ccc2ccc3c(c4c(c5c6ccccc6n(CCCO)c35)C(=O)NC4=O)c21 | 7.17 | 7.38 | 7.02 | 5.87 | 5.95 | > 2000
3 | Cc1cc2ccn(C)c2c2c3c(c4c5ccccc5n(CCCCO)c4c12)C(=O)NC3=O | – | – | < 5.70 | < 5.00 | < 5.00 | 11700
4 | O=C1NC(=O)c2c1c1c3ccccc3[nH]c1c1[nH]c3ccccc3c21 [STAUROSPORINE AGLYCON] | 6.05 | – | 6.85 | 6.07 | 6.23 | –
5 | O=C1NC(=O)c2c1c1c(ccc3cc[nH]c31)c1[nH]c3ccccc3c21 | 7.19 | 7.66 | 7.44 | 5.84 | 5.84 | > 2000
6 | Cn1ccc2ccc3c4[nH]c5c(CCCO)cccc5c4c4c(c3c21)C(=O)NC4=O | 6.25 | 7.40 | 6.77 | 5.52 | 5.63 | > 20000
7 | O=C1NC(=O)c2c1c1c(ccc3cc[nH]c31)c1[nH]c3cc(OCc4ccccc4)ccc3c21 | – | 6.42 | 6.73 | < 5.00 | < 5.00 | –
8 | Cn1ccc2cc(F)c3c(c4c(c5c6ccccc6n(CCCO)c53)C(=O)NC4=O)c21 | – | 6.35 | 6.46 | 5.62 | 5.61 | –
9 | CCn1ccc2ccc3c4[nH]c5ccccc5c4c4c(c3c21)C(=O)NC4=O | – | 7.72 | 7.23 | 5.34 | < 5.00 | > 2000
10 | Cc1cc2ccn(C)c2c2c3c(c4c5ccccc5n(CCCO)c4c12)C(=O)NC3=O | – | – | 6.17 | 5.41 | 5.32 | –

The remaining lines, values ahead:

Row | pIC50 [1] | pIC50 [2] | pIC50 [3] | pIC50 [4] | pIC50 [5] | IC50 [6] [nM] | SMILES
11 | – | – | < 5.70 | 5.15 | 5.11 | – | Cn1ccc2ccc3c4[nH]c5ccc(C(F)(F)F)cc5c4c4c(c3c21)C(=O)NC4=O
12 | 6.49 | 7.74 | 7.32 | 5.42 | 5.47 | > 20000 | Cc1ccc2c(c1)[nH]c1c3ccc4ccn(C)c4c3c3c(c21)C(=O)NC3=O
13 | 6.65 | 8.05 | 7.12 | < 5.00 | 5.45 | > 20000 | Cn1ccc2ccc3c4[nH]c5cc(C(F)(F)F)ccc5c4c4c(c3c21)C(=O)NC4=O
14 | < 6.70 | 7.41 | 7.08 | < 5.00 | < 5.00 | > 20000 | Cn1ccc2ccc3c4[nH]c5ccc(F)cc5c4c4c(c3c21)C(=O)NC4=O
15 | – | – | < 5.70 | < 5.00 | < 5.00 | – | COc1cccc2[nH]c3c4ccc5ccn(C)c5c4c4c(c3c12)C(=O)NC4=O
16 | 5.97 | 6.39 | 6.41 | 5.54 | 5.47 | 4060 | Cc1ccc2[nH]c3c4ccc5ccn(C)c5c4c4c(c3c2c1)C(=O)NC4=O
17 | – | 6.87 | 6.77 | 5.33 | 5.45 | > 20000 | Cn1ccc2ccc3c4[nH]c5cccc(Br)c5c4c4c(c3c21)C(=O)NC4=O
18 | – | – | < 5.70 | – | – | – | Cn1ccc2ccc3c4[nH]c5ccc(Br)cc5c4c4c(c3c21)C(=O)NC4=O
19 | – | – | 7.03 | 4.77 | 4.86 | – | Cn1ccc2ccc3c4[nH]c5c(Br)cccc5c4c4c(c3c21)C(=O)NC4=O
20 | – | 7.66 | 7.00 | 5.45 | 5.13 | > 20000 | CCc1ccc2c(c1)[nH]c1c3ccc4ccn(C)c4c3c3c(c21)C(=O)NC3=O
